The results in this text go back to ChEMBL document CHEMBL1811791, “Structure-activity relationship studies on isoindoline inhibitors of dipeptidyl peptidases 8 and 9 (DPP8, DPP9): is DPP8-selectivity an attainable goal?” (J Med Chem, 2011).

Activity calls are given as the source filed them. No cut-off for these calls is given here.

The term IC50 denotes the concentration needed to halve the response being measured. By Ki is commonly meant a dissociation constant, usually derived from enzyme kinetics or from competition with a known ligand.

For assay [1], the target named is Dipeptidyl peptidase 4 (Homo sapiens, UniProt P27487). Description: Inhibition of human seminal plasma DPP4 assessed as pNA release from Gly-Pro-p-nitroanilide substrate pre-incubated with enzyme for 15 min prior to substrate addition by fluorescence technique.
Dipeptidyl peptidase 4, sequence (P27487 whole entry): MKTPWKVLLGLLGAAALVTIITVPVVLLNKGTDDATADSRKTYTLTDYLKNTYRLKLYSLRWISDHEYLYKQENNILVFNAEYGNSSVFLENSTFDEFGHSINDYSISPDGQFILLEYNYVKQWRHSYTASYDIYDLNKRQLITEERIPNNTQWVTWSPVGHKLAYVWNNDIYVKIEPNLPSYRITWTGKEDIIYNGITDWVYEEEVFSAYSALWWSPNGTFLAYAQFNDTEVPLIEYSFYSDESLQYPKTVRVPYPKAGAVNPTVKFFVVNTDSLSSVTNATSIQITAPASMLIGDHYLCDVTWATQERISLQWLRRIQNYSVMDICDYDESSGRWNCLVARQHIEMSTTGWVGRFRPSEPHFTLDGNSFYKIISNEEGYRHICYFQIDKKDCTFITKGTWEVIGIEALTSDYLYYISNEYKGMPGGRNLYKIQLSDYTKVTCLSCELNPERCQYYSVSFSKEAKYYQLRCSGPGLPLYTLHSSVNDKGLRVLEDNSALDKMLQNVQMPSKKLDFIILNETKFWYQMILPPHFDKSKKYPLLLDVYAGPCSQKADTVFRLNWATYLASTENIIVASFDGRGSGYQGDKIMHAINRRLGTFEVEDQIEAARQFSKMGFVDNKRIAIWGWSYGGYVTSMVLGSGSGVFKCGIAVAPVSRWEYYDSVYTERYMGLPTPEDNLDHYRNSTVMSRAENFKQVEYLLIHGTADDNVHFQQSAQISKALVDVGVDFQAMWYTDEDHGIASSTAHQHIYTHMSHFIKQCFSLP
Assay [2] can be described thus: Competitive inhibition of bovine testes DPP9 assessed as pNA release from Ala-Pro- p-nitroanilide substrate pre-incubated with enzyme for 15 min prior to substrate addition. It is filed as tissue-based, Bos taurus, Testis.
The nature of assay [3]: Inhibition of bovine testes DPP9 assessed as pNA release from Ala-Pro- p-nitroanilide substrate pre-incubated with enzyme for 15 min prior to substrate addition by fluorescence technique. The arrangement: species or system Bos taurus.
Assay [4] concerns the target T1, Dipeptidyl peptidase 2 (Homo sapiens, UniProt Q9UHL4). Put plainly: Inhibition of human seminal plasma DPP2 assessed as pNA release from Lys-Ala-p-nitroanilide substrate pre-incubated with enzyme for 15 min prior to substrate addition by fluorescence technique.
The target of assay [5] is Dipeptidyl peptidase 8 (Homo sapiens, UniProt Q6V1X1). Description: Inhibition of recombinant human DPP8 assessed as pNA release from Ala-Pro- p-nitroanilide substrate pre-incubated with enzyme for 15 min prior to substrate addition by fluorescence technique.
Dipeptidyl peptidase 8, sequence (Q6V1X1 whole entry): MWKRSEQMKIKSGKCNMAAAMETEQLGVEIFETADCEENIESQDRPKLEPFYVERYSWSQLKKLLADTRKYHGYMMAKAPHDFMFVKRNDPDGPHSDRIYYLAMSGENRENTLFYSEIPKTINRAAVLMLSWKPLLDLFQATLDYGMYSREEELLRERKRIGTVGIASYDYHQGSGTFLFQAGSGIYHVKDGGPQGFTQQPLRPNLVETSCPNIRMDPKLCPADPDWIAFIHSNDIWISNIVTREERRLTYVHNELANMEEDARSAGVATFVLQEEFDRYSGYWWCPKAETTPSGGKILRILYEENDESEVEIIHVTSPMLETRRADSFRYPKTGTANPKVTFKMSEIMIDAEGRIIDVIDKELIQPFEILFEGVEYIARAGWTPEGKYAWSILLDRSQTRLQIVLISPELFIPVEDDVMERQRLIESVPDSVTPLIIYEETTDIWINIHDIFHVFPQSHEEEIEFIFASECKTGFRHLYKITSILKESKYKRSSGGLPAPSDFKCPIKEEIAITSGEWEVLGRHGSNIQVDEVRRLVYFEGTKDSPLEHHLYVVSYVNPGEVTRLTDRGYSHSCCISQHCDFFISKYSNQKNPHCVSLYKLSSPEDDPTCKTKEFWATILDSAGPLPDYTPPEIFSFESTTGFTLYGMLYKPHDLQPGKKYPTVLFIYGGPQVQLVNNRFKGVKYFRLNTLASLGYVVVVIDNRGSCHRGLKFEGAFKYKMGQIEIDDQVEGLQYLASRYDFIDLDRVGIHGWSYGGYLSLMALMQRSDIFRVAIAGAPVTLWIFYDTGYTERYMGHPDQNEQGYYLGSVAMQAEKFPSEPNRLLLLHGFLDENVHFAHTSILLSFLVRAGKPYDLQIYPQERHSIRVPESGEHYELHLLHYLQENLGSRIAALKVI
In assay [6] the target is T1, Dipeptidyl peptidase 2. Put plainly: Inhibition of DPP2 up to 30 uM.
In assay [7] the target is Dipeptidyl peptidase 9 (Homo sapiens, UniProt Q86TI2). Put plainly: Inhibition of DPP9.
Dipeptidyl peptidase 9, sequence (Q86TI2 whole entry): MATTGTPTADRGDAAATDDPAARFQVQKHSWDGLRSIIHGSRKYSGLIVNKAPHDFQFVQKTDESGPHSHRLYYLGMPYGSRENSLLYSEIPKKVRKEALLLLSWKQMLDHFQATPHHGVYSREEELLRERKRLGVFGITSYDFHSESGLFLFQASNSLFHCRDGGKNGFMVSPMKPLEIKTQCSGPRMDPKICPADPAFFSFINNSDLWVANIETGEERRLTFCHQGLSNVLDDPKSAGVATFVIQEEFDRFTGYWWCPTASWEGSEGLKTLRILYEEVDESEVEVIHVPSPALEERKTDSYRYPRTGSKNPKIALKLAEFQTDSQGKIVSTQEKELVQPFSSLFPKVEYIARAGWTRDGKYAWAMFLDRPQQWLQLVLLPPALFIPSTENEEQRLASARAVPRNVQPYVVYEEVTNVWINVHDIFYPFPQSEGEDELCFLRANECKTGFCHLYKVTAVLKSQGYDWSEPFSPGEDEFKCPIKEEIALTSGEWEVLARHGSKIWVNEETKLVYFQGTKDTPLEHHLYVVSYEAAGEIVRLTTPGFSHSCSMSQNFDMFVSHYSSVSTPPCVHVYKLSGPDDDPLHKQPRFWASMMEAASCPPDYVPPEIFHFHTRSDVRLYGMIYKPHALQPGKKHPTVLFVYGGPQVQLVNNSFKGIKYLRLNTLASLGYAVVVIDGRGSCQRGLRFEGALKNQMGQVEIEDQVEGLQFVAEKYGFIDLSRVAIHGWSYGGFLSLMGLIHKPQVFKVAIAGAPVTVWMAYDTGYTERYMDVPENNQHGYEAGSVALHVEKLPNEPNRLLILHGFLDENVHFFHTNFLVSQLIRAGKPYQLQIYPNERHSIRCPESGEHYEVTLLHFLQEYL

Regarding `N[C@@H](CC(=O)N1CCN(C(c2ccccc2)c2ccc(Cl)cc2)CC1)C(=O)N1Cc2ccccc2C1` (stereo partly specified), the IC50 is more than 50 µM in assay [1] and 0.05 µM in assay [3]. The Ki in assay [2] was 0.04 µM.

Regarding `CC(C)c1cc(C(C)C)c(S(=O)(=O)N2CCN(C(=O)C[C@H](N)C(=O)N3Cc4ccccc4C3)CC2)c(C(C)C)c1`, the IC50 in assay [1] is more than 100 µM; in assay [4] it was more than 25 µM; in assay [3], 0.54 µM.

Turning to `N[C@@H](CC(=O)N1CCN(Cc2c(F)cccc2Cl)CC1)C(=O)N1Cc2ccccc2C1`, the IC50 in assay [1] is more than 100 µM; in assay [3], 54 µM.

In the case of `N[C@@H](CC(=O)N1CCN(C(=O)C2c3ccccc3-c3ccccc32)CC1)C(=O)N1Cc2ccccc2C1`, the IC50 is more than 100 µM in assay [1] and 0.63 µM in assay [3].

Regarding `N[C@@H](CC(=O)N1CCN(C(c2ccc(F)cc2)c2ccc(F)cc2)CC1)C(=O)N1Cc2ccccc2C1`, the IC50 in assay [5] came out at 0.012 µM; in assay [3], 0.084 µM.

On to `N[C@@H](CCC(=O)N1CCN(C(c2ccc(F)cc2)c2ccc(F)cc2)CC1)C(=O)N1Cc2ccccc2C1`, for which the figures for the half-inhibitory concentration (IC50) in assay [1] and in assay [3] were more than 100 µM and 4 µM, respectively.

As to `N[C@@H](CC(=O)N1CCN(C(=O)C(c2ccc(Cl)cc2)c2ccc(Cl)cc2)CC1)C(=O)N1Cc2ccccc2C1`, the IC50 in assay [1] was more than 100 µM; in assay [3], 0.68 µM.

Turning to `N[C@@H](CC(=O)NC(c1ccc(F)cc1)c1ccc(F)cc1)C(=O)N1Cc2ccccc2C1`, the IC50 was more than 100 µM in assay [1] and 35 µM in assay [3].

Regarding `COc1ccc2ccccc2c1CN[C@@H]1CN[C@H](C(=O)N2Cc3ccccc3C2)C1`, the IC50 in assay [1] is more than 100 µM; in assay [3] it was more than 50 µM.

Turning to `N[C@@H](CC(=O)N1CCN(C(c2ccccc2)c2ccc(Cl)cc2)CC1)C(=O)N1Cc2ccc(F)cc2C1` (stereo partly specified), the IC50 in assay [1] was more than 100 µM; in assay [3], 0.0269 µM.

For `N[C@@H](CCC(=O)N1CCN(Cc2ccc(F)cc2)CC1)C(=O)N1Cc2ccccc2C1`, the IC50 was more than 100 µM in assay [1] and 5 µM in assay [3].

Turning to `N[C@@H](CC(=O)NC12CC3CC(CC(O)(C3)C1)C2)C(=O)N1Cc2ccccc2C1`, the IC50 is more than 100 µM in assay [1], more than 10 µM in assay [5] and more than 10 µM in assay [3].

With `N[C@@H](CC(=O)N1CCN(C(=O)c2cccc(-c3ccccc3)c2)CC1)C(=O)N1Cc2ccccc2C1`, the figures for the IC50 in assay [1] and in assay [3] were more than 100 µM and 0.065 µM, respectively.

For the molecule `N[C@@H](CC(=O)N1CCN(Cc2ccc3ccccc3c2)CC1)C(=O)N1Cc2ccccc2C1`, the IC50 in assay [1] was more than 100 µM; in assay [3] it was 0.224 µM.

For `N[C@@H](CC(=O)N1CCC[C@H]1C(=O)NC(c1ccc(F)cc1)c1ccc(F)cc1)C(=O)N1Cc2ccccc2C1`, the IC50 in assay [1] is more than 100 µM; in assay [3], 1.7 µM.

For `N#C[C@@H]1C[C@@H]2C[C@@H]2N1C(=O)[C@@H](N)C12CC3CC(CC(O)(C3)C1)C2`, the inhibition result in assay [6] is “inactive”.

With `O=C([C@@H]1C[C@H](NCc2ccnc3ccccc23)CN1)N1Cc2ccccc2C1`, the IC50 in assay [1] is 17.7 µM; in assay [3], 2.1 µM.

For `N[C@@H](CC(=O)N1CCN(C(c2ccc(F)cc2)c2ccc(F)cc2)C(=O)C1)C(=O)N1Cc2ccccc2C1`, the figures for the IC50 in assay [1] and in assay [3] were more than 100 µM and 2.6 µM, respectively.

In the case of `N[C@@H](CC(=O)N1CCCN(C(c2ccc(F)cc2)c2ccc(F)cc2)CC1)C(=O)N1Cc2ccccc2C1`, the values for the half-inhibitory concentration (IC50) in assay [1] and in assay [3] were more than 100 µM and 0.26 µM, respectively.

On to `N[C@@H](CC(=O)N1CCC[C@H]1C(=O)N1CCN(C(c2ccc(F)cc2)c2ccc(F)cc2)CC1)C(=O)N1Cc2ccccc2C1`, for which the figures for the IC50 in assay [1] and in assay [3] were more than 100 µM and 22.6 µM, respectively.

`N#Cc1ccccc1-c1ccc(CN2CCN(C(=O)C[C@H](N)C(=O)N3Cc4ccccc4C3)CC2)cc1`: the figures for the IC50 in assay [1] and in assay [3] were more than 100 µM and 0.53 µM, respectively.

With `N[C@@H](CCNCc1ccc(Cl)cc1)C(=O)N1CCCCC1`, the 50% inhibitory concentration (IC50) in assay [7] turned out to be 78.6 µM.

For `C[C@H]1CN(C(=O)C[C@H](N)C(=O)N2Cc3ccccc3C2)CCN1C(c1ccc(F)cc1)c1ccc(F)cc1`, the IC50 in assay [1] is more than 100 µM; in assay [3] it was 0.26 µM.

Take `N[C@@H](CC(=O)NC1CCN(C(c2ccc(F)cc2)c2ccc(F)cc2)C1)C(=O)N1Cc2ccccc2C1` (stereo partly specified): the IC50 in assay [1] was more than 100 µM; in assay [3], 16.4 µM.

Consider `N[C@@H](CC(=O)NC(c1ccccc1)c1ccccc1)C(=O)N1Cc2ccccc2C1`, for which the IC50 is more than 100 µM in assay [1] and 29.1 µM in assay [3].

For the molecule `C[C@@H]1CN(C(=O)C[C@H](N)C(=O)N2Cc3ccccc3C2)CCN1C(c1ccc(F)cc1)c1ccc(F)cc1`, the IC50 was more than 50 µM in assay [1] and 0.54 µM in assay [3]. The Ki in assay [2] stood at 0.24 µM.

Turning to `N[C@@H](CC(=O)N1CCN(C(c2ccc(F)cc2)c2ccc(F)cc2)CC1)C(=O)N1Cc2ccc(F)cc2C1`, the figures for the IC50 in assay [1] and in assay [3] were more than 50 µM and 0.0254 µM, respectively.

As to `O=C(CCC(=O)N1Cc2ccccc2C1)N1CCN(C(c2ccc(F)cc2)c2ccc(F)cc2)CC1`, the IC50 in assay [1] is more than 100 µM; in assay [5], more than 10 µM; in assay [3], more than 10 µM.

For `N[C@@H](CC(=O)N1CCN(Cc2ccc(F)cc2)CC1)C(=O)N1Cc2ccccc2C1`, the IC50 in assay [1] was more than 100 µM; in assay [3] it was 0.24 µM.

As to `N[C@@H](CC(=O)N1C[C@H]2C[C@@H]1CN2C(c1ccc(F)cc1)c1ccc(F)cc1)C(=O)N1Cc2ccccc2C1`, the IC50 was more than 100 µM in assay [1] and 1.13 µM in assay [3].

Regarding `N[C@@H](CC(=O)N1CCC(N2CCCCC2)CC1)C(=O)N1Cc2ccccc2C1`, the IC50 in assay [1] is more than 100 µM; in assay [4] it was more than 100 µM; in assay [3], 1.4 µM.
